These results are taken from PubChem BioAssay (NCI).

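Each compound was tested at five concentrations against cells in 96-well plates for 48 hours. Definition used: TGI = concentration required for complete inhibition of growth.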

Test systems include BT-549 breast; DMS 114 small cell lung; HCT-15 colon; LOX IMVI melanoma; LXFL 529 NSCLC; M19-MEL melanoma; MCF7 breast; NCI-H23 lung; OVCAR-3 ovarian; SNB-78 CNS; SW-620 colon.
Common to all, as to test: NCI tumour cell line growth inhibition, 48 h

As for `O=C1C=CC(=O)c2cc(Sc3ccccc3)c(=O)ccc21`, the TGI with BT-549 breast amounted to 40 µM; in the assay on DMS 114 small cell lung it was 38.5 µM; in the assay with HCT-15 colon, 33.1 µM; in the assay with LOX IMVI melanoma, 27.7 µM; with LXFL 529 NSCLC, 20.3 µM; with M19-MEL melanoma it was 35.3 µM. For the same compound, the TGI was 23.9 µM in the assay on MCF7 breast; 37 µM in the assay with NCI-H23 lung; 43.2 µM with OVCAR-3 ovarian; 42.6 µM in the assay with SNB-78 CNS; 11.7 µM in the assay on SW-620 colon.
As for `CC[N+]1(C)CCC(O)(c2ccc(OC)cc2)C(C(=O)c2ccc(OC)cc2)C1` (stereo not given), the TGI with BT-549 breast is 32.3 µM; with DMS 114 small cell lung it was 45.9 µM; in the assay with HCT-15 colon, 25.3 µM; in the assay on LOX IMVI melanoma it was 34.3 µM; in the assay with LXFL 529 NSCLC, 9.76 µM; with M19-MEL melanoma it was 42.4 µM. Besides, the TGI stood at 17.7 µM in the assay on MCF7 breast; 36.8 µM in the assay on NCI-H23 lung; 22.1 µM in the assay on OVCAR-3 ovarian; 41.5 µM in the assay with SNB-78 CNS; 4.82 µM in the assay on SW-620 colon.
With `N#C/C(=C1\SC(N=Nc2ccccc2)C(=O)N1c1ccccc1)c1nc2ccccc2[nH]1` (stereo not given), the TGI with DMS 114 small cell lung, in the assay with HCT-15 colon, with LOX IMVI melanoma, in the assay on LXFL 529 NSCLC, in the assay with M19-MEL melanoma and in the assay with NCI-H23 lung was more than 100 µM in each case. Also, the TGI with OVCAR-3 ovarian, with SNB-78 CNS and in the assay with SW-620 colon was more than 100 µM in each case.
Consider `O=C1C(Cl)C(c2ccccc2O)N1n1cnc2ccccc2c1=O` (stereo not given), for which the TGI with DMS 114 small cell lung is 81.4 µM; in the assay with HCT-15 colon it was 15.1 µM; in the assay on LOX IMVI melanoma it was more than 100 µM; with LXFL 529 NSCLC it was more than 100 µM; with M19-MEL melanoma it was more than 100 µM; with NCI-H23 lung, more than 100 µM. Besides, the TGI with OVCAR-3 ovarian, with SNB-78 CNS and with SW-620 colon was more than 100 µM in each case.
In the case of `CN1C(=O)C(=O)c2cc3c(c4c2c1cc1ccccc14)OCO3`, the TGI in the assay on DMS 114 small cell lung was more than 100 µM; in the assay on HCT-15 colon it was more than 100 µM; with LOX IMVI melanoma it was 97.2 µM; in the assay on LXFL 529 NSCLC, more than 100 µM; with M19-MEL melanoma, more than 100 µM; in the assay on NCI-H23 lung it was more than 100 µM. Also, the TGI in the assay on OVCAR-3 ovarian, in the assay on SNB-78 CNS and in the assay on SW-620 colon was more than 100 µM each time.
Consider `COC(=O)C1[C@H](c2cc(OC)c(OC)c(OC)c2)OC(=O)C1(C(=O)OC)C(=O)c1ccc2c(c1)OCO2` (stereo not given in full), for which the TGI in the assay with DMS 114 small cell lung, in the assay with HCT-15 colon, with LOX IMVI melanoma, with LXFL 529 NSCLC, in the assay on M19-MEL melanoma and with NCI-H23 lung was more than 100 µM in each case. Moreover, the TGI in the assay on OVCAR-3 ovarian, in the assay on SNB-78 CNS and in the assay on SW-620 colon was more than 100 µM each time.
As for `Cn1c(=O)c2nc(-c3ccc(Cl)cc3)oc2n(C)c1=O`, the TGI in the assay on DMS 114 small cell lung, in the assay on HCT-15 colon, with LOX IMVI melanoma, with LXFL 529 NSCLC, in the assay with M19-MEL melanoma and in the assay on NCI-H23 lung was more than 100 µM throughout. Further, the TGI in the assay with OVCAR-3 ovarian, in the assay on SNB-78 CNS and in the assay with SW-620 colon was more than 100 µM each time.
`CC(=O)OC1CC2C(C)(C)C(=O)C=C[C@]2(C)C2CCC3(C)C(=CC(=O)C3c3ccoc3)[C@]12C` (stereo not given in full): the TGI worked out at 27.6 µM with DMS 114 small cell lung; 26.1 µM in the assay with HCT-15 colon; 31.4 µM in the assay with LOX IMVI melanoma; 74.2 µM with LXFL 529 NSCLC; 33.5 µM in the assay with M19-MEL melanoma; 29.5 µM in the assay on NCI-H23 lung. In addition, the TGI was 25.8 µM in the assay with OVCAR-3 ovarian, more than 100 µM in the assay with SNB-78 CNS and 26 µM in the assay with SW-620 colon.
Regarding `O=c1c2cccc3cccc(c4n1CCN=4)c32`, the TGI with DMS 114 small cell lung was more than 100 µM; in the assay with HCT-15 colon, more than 100 µM; in the assay with LOX IMVI melanoma it was 80.5 µM; with LXFL 529 NSCLC it was more than 100 µM; in the assay on M19-MEL melanoma, more than 100 µM; in the assay on NCI-H23 lung, more than 100 µM. In addition, the TGI with OVCAR-3 ovarian, with SNB-78 CNS and with SW-620 colon was more than 100 µM throughout.
